In US9745284B2, “2-pyridyloxy-4-ether orexin receptor antagonists” (MERCK SHARP & DOHME CORP., priority 2013, dated 2017):

Assays:
[1] = target: human orexin-2 receptor (Homo sapiens (Human), UniProt O43614); assay: FLIPR Ca2+ flux assay, orexin-2 receptor; assay type: cell-based; settings: CHO cells expressing human orexin-2 receptor; agonist 70 pM Ala-6,12 orexin-A; read-out: hOX2R FLIPR IC50
Description: The utility of the compounds in accordance with the present invention as orexin receptor OX1R and/or OX2R antagonists may be readily determined without undue experimentation by methodology well known in the art, including the “FLIPR Ca^2+ Flux Assay” (Okumura et al., Biochem. Biophys. Res. Comm. 280:976-981, 2001). In a typical experiment the OX1 and OX2 receptor antagonistic activity of the compounds of the present invention was determined in accordance with the following experimental method. For intracellular calcium measurements, Chinese hamster ovary (CHO) cells expressing the rat orexin-1 receptor or the human orexin-2 receptor, are grown in Iscove's modified DMEM containing 2 mM L-glutamine, […], 1% hypoxanthine-thymidine supplement, 100 U/ml penicillin, 100 μg/ml streptomycin and 10% heat-inactivated fetal calf serum (FCS). The cells are seeded at 20,000 cells/well into Becton-Dickinson black 384-well clear bottom sterile plates coated with poly-D-lysine. All reagents were from GIBCO-Invitrogen Corp. The seeded plates are incubated overnight at 37° C. and 5% CO2. Ala-6,12 human orexin-A as the agonist is prepared as a 1 mM stock solution in 1% bovine serum albumin (BSA) and diluted in assay buffer (HBSS containing 20 mM HEPES, 0.1% BSA and 2.5 mM probenecid, pH7.4) for use in the assay at a final concentration of 70 pM. Test compounds are prepared as 10 mM stock solution in DMSO, then diluted in 384-well plates, first in DMSO, then assay buffer. On the day of the assay, cells are washed 3 times with 100 μl assay buffer and then incubated for 60 min (37° C., 5% CO2) in 60 μl assay buffer containing 1 μM Fluo-4AM ester, 0.02% pluronic acid, and 1% BSA. The dye loading solution is then aspirated and cells are washed 3 times with 100 μl assay buffer. 30 μl of that same buffer is left in each well. Within the Fluorescent Imaging Plate Reader (FLIPR, Molecular Devices), test compounds are added to the plate in a volume of 25 μl, incubated for 5 min and finally 25 μl of agonist is added. Fluorescence is measured for each well at 1 second intervals for 5 minutes and the height of each fluorescence peak is compared to the height of the fluorescence peak induced by 70 pM Ala-6,12 orexin-A with buffer in place of antagonist. For each antagonist, IC50 value (the concentration of compound needed to inhibit 50% of the agonist response) is determined. Alternatively, compound potency can be assessed by a radioligand binding assay (described in Bergman et. al. Bioorg. Med. Chem. Lett. 2008, 18, 1425-1430) in which the inhibition constant (Ki) is determined in membranes prepared from CHO cells expressing either the OX1 or OX2 receptor. The intrinsic orexin receptor antagonist activity of a compound which may be used in the present invention may be determined by these assays.

[2] = target: hOX1R (Homo sapiens, UniProt O43613); assay: FLIPR Ca2+ flux assay, orexin-1 receptor; assay type: cell-based; settings: CHO cells expressing orexin-1 receptor; agonist 70 pM Ala-6,12 orexin-A

Sequence of human orexin-2 receptor (O43614 whole entry): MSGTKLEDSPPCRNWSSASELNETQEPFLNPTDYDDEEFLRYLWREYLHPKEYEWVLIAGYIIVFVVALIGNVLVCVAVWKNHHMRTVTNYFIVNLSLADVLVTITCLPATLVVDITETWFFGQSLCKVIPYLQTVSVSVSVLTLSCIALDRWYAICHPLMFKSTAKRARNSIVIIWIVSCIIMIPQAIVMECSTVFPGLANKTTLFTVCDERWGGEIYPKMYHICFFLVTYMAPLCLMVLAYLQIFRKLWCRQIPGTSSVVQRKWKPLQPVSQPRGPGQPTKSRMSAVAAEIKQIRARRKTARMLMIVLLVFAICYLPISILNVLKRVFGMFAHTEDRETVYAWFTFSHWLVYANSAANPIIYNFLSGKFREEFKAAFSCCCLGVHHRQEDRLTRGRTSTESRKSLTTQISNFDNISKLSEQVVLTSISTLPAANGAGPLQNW

Row | SMILES | IC50 [1] [nM] | IC50 [2] [nM]
1 | CC(C)Oc1ccnc(O[C@@H]2CC[C@@H](C)N(C(=O)c3ccccc3-n3ncnn3)C2)c1 [Example 7, 4-(1-methylethoxy)-2-{[(3R,6R)-6-methyl-1-{[2-(2H-tetrazol-2-yl)phenyl]carbonyl}piperidin-3-yl]oxy}pyridine] | 23 | 1200
2 | C[C@@H]1CC[C@@H](Oc2cc(OCC(F)F)ccn2)CN1C(=O)c1c(F)cccc1-n1nccn1 [Example 36, 4-(2,2-difluoroethoxy)-2-{[(3R,6R)-1-{[2-fluoro-6-(2H-1,2,3-triazol-2-yl)phenyl]carbonyl}-6-methylpiperidin-3-yl]oxy}pyridine] | 56 | 2970
3 | CC(C)Oc1ccnc(O[C@@H]2CC[C@@H](C)N(C(=O)c3ccc(F)cc3-n3nccn3)C2)c1 [Example 23, 2-{[(3R,6R)-1-{[4-fluoro-2-(2H-1,2,3-triazol-2-yl)phenyl]carbonyl}-6-methylpiperidin-3-yl]oxy}-4-(1-methylethoxy) pyridine] | 41.2 | 2140
4 | CCOc1ccnc(O[C@@H]2CC[C@@H](C)N(C(=O)c3ccccc3-n3nccn3)C2)c1 [Example 1, 4-Ethoxy-2-{[(3R,6R)-6-methyl-1-{[2-(2H-1,2,3-triazol-2-yl)phenyl]carbonyl}piperidin-3-yl]oxy}pyridine] | 20.5 | 859
5 | COc1ccnc(O[C@@H]2CC[C@@H](C)N(C(=O)c3ccccc3-n3nccn3)C2)c1F [Example 49, 3-Fluoro-4-methoxy-2-{[(3R,6R)-6-methyl-1-{[2-(2H-1,2,3-triazol-2-yl)phenyl]carbonyl}piperidin-3-yl]oxy}pyridine] | 71 | 10000
6 | C[C@@H]1CC[C@@H](Oc2cc(OCC(F)(F)F)ccn2)CN1C(=O)c1ccsc1-c1ncccn1 [Example 66, 2-(3-{[(2R,5R)-2-methyl-5-{[4-(2,2,2-trifluoroethoxy)pyridin-2-yl]oxy}piperidin-1-yl]carbonyl}thiophen 2-yl)pyrimidine] | 26 | 2080
7 | Cc1noc(-c2ccccc2C(=O)N2C[C@H](Oc3cc(OCC(F)F)ccn3)CC[C@H]2C)n1 [Example 37, 4-(2,2-difluoroethoxy)-2-{[(3R,6R)-6-methyl-1-{[2-(3-methyl-1,2,4-oxadiazol-5-yl)phenyl]carbonyl}piperidin-3-yl]oxy}pyridine] | 52 | 2720
8 | COc1ccnc(O[C@@H]2CC[C@@H](C)N(C(=O)c3ccccc3-n3nccn3)C2)c1Br [Example 3, 3-bromo-4-methoxy-2-{[(3R,6R)-6-methyl-1-{[2-(2H-1,2,3-triazol-2-yl)phenyl]carbonyl}piperidin-3-yl]oxy}pyridine] | 14.7 | 843
9 | COc1ccnc(O[C@@H]2CC[C@@H](C)N(C(=O)c3ccccc3-n3nccn3)C2)c1C(C)=O [Example 51, 1-(4-methoxy-2-{[(3R,6R)-6-methyl-1-{[2-(2H-1,2,3-triazol-2-yl)phenyl]carbonyl}piperidin-3-yl]oxy}pyridin-3-yl)ethanone] | 12.3 | 976
10 | C[C@@H]1CC[C@@H](Oc2cc(OCC(F)F)ccn2)CN1C(=O)c1ncccc1-c1ncccn1 [Example 47, 2-(2-{[(2R,5R)-5-{[4-(2,2-difluoroethoxy)pyridin-2-yl]oxy}-2-methylpiperidin-1-yl]carbonyl}pyridin-3-yl)pyrimidine] | 84 | 9270
11 | C[C@@H]1CC[C@@H](Oc2cc(OCC(F)(F)F)ccn2)CN1C(=O)c1ccccc1-n1ncnn1 [Example 30, 2-{[(3R,6R)-6-methyl-1-{[2-(2H-tetrazol-2-yl)phenyl]carbonyl}piperidin-3-yl]oxy}-4-(2,2,2-trifluoroethoxy)pyridine] | 38 | 10000
12 | COc1ccnc(O[C@@H]2CC[C@@H](C)N(C(=O)c3ccc(F)cc3-n3nccn3)C2)c1 [Example 19, 2-{[(3R,6R)-1-{[4-fluoro-2-(2H-1,2,3-triazol-2-yl)phenyl]carbonyl}-6-methylpiperidin-3-yl]oxy}-4-methoxypyridine] | 22.1 | 1800
13 | COc1ccnc(O[C@@H]2CC[C@@H](C)N(C(=O)c3ccc(OC)nc3-n3nccn3)C2)c1 [Example 18] | 94.5 | 10000
14 | C[C@@H]1CC[C@@H](Oc2cc(OC(F)F)ccn2)CN1C(=O)c1cscc1-n1nccn1 [Example 55, 4-(difluoromethoxy)-2-{[(3R,6R)-6-methyl-1-{[4-(2H-1,2,3-triazol-2-yl)thiophen-3-yl]carbonyl}piperidin-3-yl]oxy}pyridine] | 13 | 1760
15 | COc1ccnc(O[C@@H]2CC[C@@H](C)N(C(=O)c3ccc(OC)nc3C3CC3)C2)c1 [Example 21, 2-cyclopropyl-6-methoxy-3-({(2R,5R)-5-[(4-methoxypyridin-2-yl)oxy]-2-methylpiperidin-1-yl}carbonyl) pyridine] | 38.3 | 8190
16 | C[C@@H]1CC[C@@H](Oc2cc(OC(F)F)ccn2)CN1C(=O)c1ccccc1-n1ncnn1 [Example 57, 4-(difluoromethoxy)-2-{[(3R,6R)-6-methyl-1-{[2-(2H-tetrazol-2-yl)phenyl]carbonyl}piperidin-3-yl]oxy}pyridine] | 11 | 1690
17 | C[C@@H]1CC[C@@H](Oc2cc(OCC(F)(F)F)ccn2)CN1C(=O)c1ccccc1-n1nccn1 [Example 28, (2-(2H-1,2,3-triazol-2-yl)phenyl)((2R,5R)-2-methyl-5-((4-(2,2,2-trifluoroethoxy)pyridin-2-yl)oxy)piperidin-1-yl)methanone] | 8 | 1340
18 | CCOc1ccccc1C(=O)N1C[C@H](Oc2cc(OC)ccn2)CC[C@H]1C [Example 14, 2-({(3R,6R)-1-[(2-ethoxyphenyl)carbonyl]-6-methylpiperidin-3-yl}oxy)-4-methoxypyridine] | 34.8 | 1980
19 | COc1ccnc(O[C@@H]2CC[C@@H](C)N(C(=O)c3ccc(OC)nc3-c3ccccc3)C2)c1 [Example 15, 6-methoxy-3-({(2R,5R)-5-[(4-methoxypyridin-2-yl)oxy]-2-methylpiperidin-1-yl}carbonyl)-2-phenylpyridine] | 24.5 | 746
20 | CC(C)Oc1ccnc(O[C@@H]2CC[C@@H](C)N(C(=O)c3ccsc3-n3nccn3)C2)c1 [Example 61, 4-(1-methylethoxy)-2-{[(3R,6R)-6-methyl-1-{[2-(2H-1,2,3-triazol-2-yl)thiophen-3-yl]carbonyl}piperidin-3-yl]oxy}pyridine] | 25 | 1480
21 | COc1ccnc(O[C@@H]2CC[C@@H](C)N(C(=O)c3ccccc3-n3nccn3)C2)c1C=O [Example 50, 4-Methoxy-2-{[(3R,6R)-6-methyl-1-{[2-(2H-1,2,3-triazol-2-yl)phenyl]carbonyl}piperidin-3-yl]oxy}pyridine-3-carbaldehyde] | 37.5 | 6750
22 | COc1ccnc(O[C@@H]2CC[C@@H](C)N(C(=O)c3c(F)cccc3-n3nccn3)C2)c1 [Example 17, 2-{[(3R,6R)-1-{[2-fluoro-6-(2H-1,2,3-triazol-2-yl)phenyl]carbonyl}-6-methylpiperidin-3-yl]oxy}-4-methoxypyridine] | 27 | 1600
23 | COc1ccnc(O[C@@H]2CC[C@@H](C)N(C(=O)c3ccccc3C3CC3)C2)c1 [Example 12, 2-({(3R,6R)-1-[(2-cyclopropylphenyl)carbonyl]-6-methylpiperidin-3-yl}oxy)-4-methoxypyridine] | 11 | 938
24 | C[C@@H]1CC[C@@H](Oc2cc(OCC(F)F)ccn2)CN1C(=O)c1ccsc1-n1nccn1 [Example 60, (2-(2H-1,2,3-Triazol-2-yl)thiophen-3-yl)((2R,5R)-5-((4-(2,2-difluoroethoxy)pyridin-2-yl)oxy)-2-methylpiperidin-1-yl)methanone] | 22 | 2020
25 | C[C@@H]1CC[C@@H](Oc2cc(OC(F)F)ccn2)CN1C(=O)c1ccsc1-n1nccn1 [Example 54, (2-(2H-1,2,3-Triazol-2-yl)thiophen-3-yl)((2R,5R)-5-((4-(difluoromethoxy)pyridin-2-yl)oxy)-2-methylpiperidin-1-yl)methanone] | 11 | 1020
